Assay [1] deals with T1, nicotinamide phosphoribosyltransferase (NAMPT) (Homo sapiens, UniProt P43490). Format: biochemical.
In assay [2] the target is T1, nicotinamide phosphoribosyltransferase (NAMPT). Kind of assay: dissociation constant determination at […] °C, pH […]. It is filed as binding.

T1 sequence (P43490 whole entry): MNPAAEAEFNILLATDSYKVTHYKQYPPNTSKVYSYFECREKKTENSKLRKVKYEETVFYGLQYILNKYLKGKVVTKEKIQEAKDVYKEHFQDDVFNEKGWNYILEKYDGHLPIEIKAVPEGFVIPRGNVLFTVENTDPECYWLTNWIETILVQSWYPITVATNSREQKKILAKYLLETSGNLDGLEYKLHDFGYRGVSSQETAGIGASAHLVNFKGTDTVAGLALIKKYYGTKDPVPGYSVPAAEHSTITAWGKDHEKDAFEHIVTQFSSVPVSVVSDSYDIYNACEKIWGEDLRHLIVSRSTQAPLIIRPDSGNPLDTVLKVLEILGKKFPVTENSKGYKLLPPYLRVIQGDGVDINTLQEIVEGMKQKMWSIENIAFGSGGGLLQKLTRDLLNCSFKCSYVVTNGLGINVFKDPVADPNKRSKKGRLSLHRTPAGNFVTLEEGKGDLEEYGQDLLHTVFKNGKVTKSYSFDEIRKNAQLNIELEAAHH

Usually Ki stands for the equilibrium dissociation constant of an inhibitor or competing ligand from its target. A high value points to a looser hold on the target. For `O=[N+]([O-])c1ccc(O[C@@H]2O[C@H](COP(=O)(O)O)[C@@H](O)[C@H]2O)cc1` [5P-pNR, 5-phospho-p-nitrophenyl β-D-ribofuranoside], the affinity in assay [1], expressed as Ki, was 2.5 µM. Usually Kd stands for the equilibrium constant for the complex coming apart. Low readings indicate higher affinity, high ones lower affinity. For `NC(=O)c1ccc[n+]([C@@H]2O[C@H](COP(=O)([O-])O)[C@@H](O)[C@H]2O)c1` [NMN, nicotinamide mononucleotide], the affinity in assay [2], expressed as Kd, was 34 ± 2 µM.

For the origin of these results see PMC3627370 (Journal of the American Chemical Society, 2013).
